Results on nine compounds are retold here after patent publication US20230265116A1, “DEGRADATION OF (EGFR) BY CONJUGATION OF EGFR INHIBITORS WITH E3 LIGASE LIGAND AND METHODS OF USE” (BEIGENE, LTD., priority 2020, published 2023).

Assay [1] relates to EGFR Del19/T790M/C797S (H1975-clone #28). Description: EGFR degradation HTRF assay, H1975-clone #28 DTC cells. It is filed as cell-based. As for the experimental part:
H1975-clone #28(Del19/T790M/C797S) and H1975-clone #23(Del19/C797S). EGFR-Del19/T790M/C797S and EGFR-Del19/C797S were stably expressed in H1975 cell lines by lentivirus-mediated over-expression, respectively. The EGFR over-expressed cells then underwent gene knockout, in which the EGFR targeting sgRNA was designed to only target the endogenous EGFR copies and preserve the exogenous EGFR copies. Followed by the gene knockout, the edited H1975 cells were seeded in 96 well plates at the concentration of 1 cell/well, cultured for about 2 weeks to allow single clones formation. The formed clones were screened by DNA sequencing and whole exon sequencing analysis for the desired edition. H1975-clone #28 and H1975-clone #23 were finally confirmed as homozygous Del19/T790M/C797S EGFR and Del19/C797S EGFR clones, respectively.
(§1) BaF3 WT(wild type), BaF3-LTC(L858R/T790M/C797S) and BaF3-DTC(Del19/T790M/C797S) cells are treated with compounds diluted in 0.2% DMSO cell culture medium and incubate for 16h, 37° C., 5% CO2, H1975-#36, H1975-#28, H1975-#23 and HCC827 cells are treated with compounds diluted in 0.2% DMSO cell culture medium on day 2, incubate for 16h, 37° C., 5% CO2.the final concentriation of compounds in all assay is start with 10 uM, 5-fold dilution, total 8 doses were included.
(§2) After 16h treatment, add HTRF lysis buffer to each well; seal the plate and incubate 1 hour at room temperature on a plate shaker; Once the cells are lysed, 16 μL of cell lysate are transferred to a PE 384-well HTRF detection plate; 4 μL of pre-mixed HTRF antibodies are added to each well; Cover the plate with a plate sealer, spin 1000 rpm for 1 min, Incubate overnight at room temperature; Read on BMG PheraStar with HTRF protocol (337 nm-665 nm-620 nm).
(§3) The inhibition (degradation) percentage of the compound was calculated by the following equation: Inhibition percentage of Compound=100-100×(Signal-low control)/(High control-low control), wherein signal=each test compound group
(§4) High control=Cell group with added DMSO and without compound, indicating microplate readings without EGFR degradation;
(§5) Dmax is the maximum percentage of inhibition (degradation).
(§6) The IC50 (DC50) value of a compound can be obtained by fitting the following equation
(§7) Y=Bottom+(TOP−Bottom)/(1+((IC50/X)^hillslope))
(§8) Wherein, X and Y are known values, and IC50, Hillslope, Top and Bottom are the parameters obtained by fitting with software. Y is the inhibition percentage (calculated from the equation), X is the concentration of the compound; IC50 is the concentration of the compound when the 50% inhibition is reached. The smaller the IC50 value is, the stronger the inhibitory ability of the compound is. Vice versa, the higher the IC50 value is, the weaker the inhibitory ability of the compound is; Hillslope represents the slope of the fitted curve, generally around 1*; Bottom represents the minimum value of the curve obtained by data fitting, which is generally 0%±20%; Top represents the maximum value of the curve obtained by data fitting, which is generally 100%±20%. The experimental data were fitted by calculating and analyzing with Dotmatics data analysis software.

The target of assay [2] is T1, EGFR L858R/T790M/C797S (BaF3-LTC cells) (Homo sapiens, UniProt P00533, C797S/L858R/T790M).
T1 construct: expressed in transfected cells; host or cells: BaF3
T1 sequence (P00533 25-1210 T790M/C797S/L858R): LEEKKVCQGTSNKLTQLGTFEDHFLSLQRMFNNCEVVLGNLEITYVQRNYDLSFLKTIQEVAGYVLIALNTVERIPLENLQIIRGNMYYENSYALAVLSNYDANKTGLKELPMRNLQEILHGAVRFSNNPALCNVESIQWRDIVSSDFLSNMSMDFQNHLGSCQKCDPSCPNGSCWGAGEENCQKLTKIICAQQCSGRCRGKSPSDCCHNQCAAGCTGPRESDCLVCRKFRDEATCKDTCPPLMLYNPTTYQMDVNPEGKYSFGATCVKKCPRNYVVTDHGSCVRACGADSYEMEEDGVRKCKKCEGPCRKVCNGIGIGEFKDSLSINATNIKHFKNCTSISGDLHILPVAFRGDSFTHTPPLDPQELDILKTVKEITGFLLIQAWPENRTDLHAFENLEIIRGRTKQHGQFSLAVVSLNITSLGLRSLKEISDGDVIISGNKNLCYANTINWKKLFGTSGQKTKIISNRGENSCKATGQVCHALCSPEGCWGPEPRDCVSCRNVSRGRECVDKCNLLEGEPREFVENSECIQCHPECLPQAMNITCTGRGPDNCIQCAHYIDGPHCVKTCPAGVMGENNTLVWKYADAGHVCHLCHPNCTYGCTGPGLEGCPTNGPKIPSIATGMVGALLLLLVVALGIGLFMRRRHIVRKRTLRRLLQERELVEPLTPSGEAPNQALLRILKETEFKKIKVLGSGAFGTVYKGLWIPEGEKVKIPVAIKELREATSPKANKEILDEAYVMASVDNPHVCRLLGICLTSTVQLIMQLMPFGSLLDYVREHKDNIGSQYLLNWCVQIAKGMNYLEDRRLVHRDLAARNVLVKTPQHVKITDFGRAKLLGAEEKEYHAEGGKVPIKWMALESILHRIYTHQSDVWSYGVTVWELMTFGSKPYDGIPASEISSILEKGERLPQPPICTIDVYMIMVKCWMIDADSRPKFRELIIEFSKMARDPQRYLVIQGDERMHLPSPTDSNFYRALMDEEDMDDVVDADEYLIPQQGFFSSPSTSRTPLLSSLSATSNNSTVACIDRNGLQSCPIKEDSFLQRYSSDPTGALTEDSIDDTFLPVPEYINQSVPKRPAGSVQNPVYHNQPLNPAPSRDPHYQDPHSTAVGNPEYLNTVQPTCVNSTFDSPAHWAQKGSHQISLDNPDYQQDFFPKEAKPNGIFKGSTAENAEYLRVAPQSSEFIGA
Nature of the assay: EGFR degradation HTRF assay, BaF3-LTC cells. The format is cell-based. As for the experimental part:
as §1, §2, §3, §4, §5, §6, §7, §8

Setting [3] is: H1975 # 28 DTC cells; EGFR degradation, IC50 (DC50) from curve fit; read-out: DC50(nM) H1975 # 28 DTC.
The mark [4] stands for this setting: H1975 # 28 DTC cells; maximum percentage of inhibition (degradation).
The mark [5] stands for this setting: BaF3-LTC cells; EGFR degradation, IC50 (DC50) from curve fit; read-out: DC50(nM) BaF3-LTC.
[6] abbreviates: BaF3-LTC cells; maximum percentage of inhibition (degradation); read-out: Dmax (%) BaF3-LTC.
[7] abbreviates: read-out: DC50(nM) H1975 # 28 DTC; H1975 # 28 DTC cells; EGFR degradation, IC50 (DC50) from curve fit.
Where [8] appears, read: read-out: DC50(nM) BaF3-LTC; BaF3-LTC cells; EGFR degradation, IC50 (DC50) from curve fit.

Where two headings read alike, the source gives them in different places.

As to `CCc1ccc2c(P(C)(C)=O)c(Nc3nc(Nc4cc(CC)c(N5CCC(N6CCN(CCc7cc8oc(=O)n(C9CCC(=O)NC9=O)c8cc7F)CC6)CC5)cc4OC)ncc3Br)ccc2n1` (stereo not drawn) [Example 457, 3-(6-(2-(4-(1-(4-((5-bromo-4-((5-(dimethylphosphoryl)-2-ethylquinolin-6-yl)amino)pyrimidin-2-yl)amino)-2-ethyl-5-methoxyphenyl)piperidin-4-yl)piperazin-1-yl)ethyl)-5-fluoro-2-oxobenzo[d]oxazol-3(2H)-yl)piperidine-2,6-dione], the figures for the 50% degradation concentration (DC50) in assay [1] (setting [3]) and in assay [2] (setting [5]) were 0.655 nM and 3.25 nM, respectively. In addition, the “Dmax (%) H1975 # 28 DTC” value in assay [1] (setting [4]) turned out to be 74.18%. Moreover, in assay [2] (setting [6]), the maximal degradation (Dmax) came to 92.5%.

On to `CCOc1cc(N2CCC(N3CCN(CCc4c(C)ccc5c4n(C)c(=O)n5C4CCC(=O)NC4=O)CC3)CC2)c(CC)cc1Nc1ncc(Br)c(Nc2ccc3nc(CC)ccc3c2P(C)(C)=O)n1` (stereo not drawn) [Example 461, 3-(4-(2-(4-(1-(4-((5-bromo-4-((5-(dimethylphosphoryl)-2-ethylquinolin-6-yl)amino)pyrimidin-2-yl)amino)-5-ethoxy-2-ethylphenyl)piperidin-4-yl)piperazin-1-yl)ethyl)-3,5-dimethyl-2-oxo-2,3-dihydro-1H-benzo[d]imidazol-1-yl)piperidine-2,6-dione], for which the values for the half-maximal degradation concentration (DC50) in assay [1] (setting [3]) and in assay [2] (setting [5]) were 38.8 nM and 132 nM, respectively. Also, the “Dmax (%) H1975 # 28 DTC” value in assay [1] (setting [4]) amounted to 75.83%. In addition, the Dmax in assay [2] (setting [6]) amounted to 90%.

Regarding `CCOc1cc(N2CCC(N3CCN(C(=O)C4CN(c5cc(F)cc6c5n(C)c(=O)n6C5CCC(=O)NC5=O)C4)CC3)CC2)c(CC)cc1Nc1ncc(Br)c(Nc2ccc3nc(CC)ccc3c2P(C)(C)=O)n1` (stereo not drawn) [Example 466, 3-(4-(3-(4-(1-(4-((5-bromo-4-((5-(dimethylphosphoryl)-2-ethylquinolin-6-yl)amino)pyrimidin-2-yl)amino)-5-ethoxy-2-ethylphenyl)piperidin-4-yl)piperazine-1-carbonyl)azetidin-1-yl)-6-fluoro-3-methyl-2-oxo-2,3-dihydro-1H-benzo[d]imidazol-1-yl)piperidine-2,6-dione], the results for the half-maximal degradation concentration (DC50) in assay [1] (setting [3]) and in assay [2] (setting [5]) were 2.03 nM and 15.1 nM, respectively. In assay [1] (setting [4]), the “Dmax (%) H1975 # 28 DTC” value is recorded as 72.67%. Further, the Dmax in assay [2] (setting [6]) was 90.8%.

For the compound `CCOc1cc(N2CCC(N3CCN(CC4CN(c5cc(F)cc6c5n(C)c(=O)n6C5CCC(=O)NC5=O)C4)CC3)CC2)c(CC)cc1Nc1ncc(Br)c(Nc2ccc3nc(CC)ccc3c2P(C)(C)=O)n1` (stereo not drawn) [Example 467, 3-(4-(3-((4-(1-(4-((5-bromo-4-((5-(dimethylphosphoryl)-2-ethylquinolin-6-yl)amino)pyrimidin-2-yl)amino)-5-ethoxy-2-ethylphenyl)piperidin-4-yl)piperazin-1-yl)methyl)azetidin-1-yl)-6-fluoro-3-methyl-2-oxo-2,3-dihydro-1H-benzo[d]imidazol-1-yl)piperidine-2,6-dione], the DC50 in assay [1] (setting [3]) turned out to be 1.83 nM; in assay [2] (setting [5]) it was 12.5 nM. Also, the “Dmax (%) H1975 # 28 DTC” value in assay [1] (setting [4]) is on record as 76.06%. The Dmax in assay [2] (setting [6]) came out at 91.3%.

Take `CCOc1cc(N2CCC(N3CCN(CCc4c(F)ccc5c4oc(=O)n5C4CCC(=O)NC4=O)CC3)CC2)c(CC)cc1Nc1ncc(Br)c(Nc2ccc3nc(CC)ccc3c2P(C)(C)=O)n1` (stereo not drawn) [Example 471, 3-(7-(2-(4-(1-(4-((5-bromo-4-((5-(dimethylphosphoryl)-2-ethylquinolin-6-yl)amino)pyrimidin-2-yl)amino)-5-ethoxy-2-ethylphenyl)piperidin-4-yl)piperazin-1-yl)ethyl)-6-fluoro-2-oxobenzo[d]oxazol-3(2H)-yl)piperidine-2_6-dione]: the DC50 in assay [1] (setting [3]) was 1.98 nM; in assay [2] (setting [5]), 36 nM. In assay [1] (setting [4]), the “Dmax (%) H1975 # 28 DTC” value stood at 73.66%. The Dmax in assay [2] (setting [6]) is 83.9%.

As for `CCOc1cc(N2CCC(N3CCN(CCc4cc(F)cc5c4oc(=O)n5C4CCC(=O)NC4=O)CC3)CC2)c(CC)cc1Nc1ncc(Br)c(Nc2ccc3nc(CC)ccc3c2P(C)(C)=O)n1` (stereo not drawn) [Example 472, 3-(7-(2-(4-(1-(4-((5-bromo-4-((5-(dimethylphosphoryl)-2-ethylquinolin-6-yl)amino)pyrimidin-2-yl)amino)-5-ethoxy-2-ethylphenyl)piperidin-4-yl)piperazin-1-yl)ethyl)-5-fluoro-2-oxobenzo[d]oxazol-3(2H)-yl)piperidine-2,6-dione], the DC50 in assay [1] (setting [3]) was 0.945 nM; in assay [2] (setting [5]) it was 19.6 nM. In assay [1] (setting [4]), the “Dmax (%) H1975 # 28 DTC” value came out at 80.01%. Moreover, the maximal degradation (Dmax) in assay [2] (setting [6]) turned out to be 86.9%.

Consider `CCOc1cc(N2CCC(N3CCN(C[C@@H]4CCN(c5cc(F)cc6c5oc(=O)n6C5CCC(=O)NC5=O)C4)CC3)CC2)c(CC)cc1Nc1ncc(Br)c(Nc2ccc3nc(CC)ccc3c2P(C)(C)=O)n1` (stereo partly drawn) [Example 476, 3-(7-((S)-3-((4-(1-(4-((5-bromo-4-((5-(dimethylphosphoryl)-2-ethylquinolin-6-yl)amino)pyrimidin-2-yl)amino)-5-ethoxy-2-ethylphenyl)piperidin-4-yl)piperazin-1-yl)methyl)pyrrolidin-1-yl)-5-fluoro-2-oxobenzo[d]oxazol-3(2H)-yl)piperidine-2,6-dione], for which the results for the DC50 in assay [1] (setting [3]) and in assay [2] (setting [5]) were 7.95 nM and 26.5 nM, respectively. For the same compound, the “Dmax (%) H1975 # 28 DTC” value in assay [1] (setting [4]) worked out at 74.62%. For the same compound, the Dmax in assay [2] (setting [6]) was determined as 88%.

With `CCOc1cc(N2CCC(N3CCN(C(=O)[C@@H]4CCN(c5cc(F)cc6c5oc(=O)n6C5CCC(=O)NC5=O)C4)CC3)CC2)c(CC)cc1Nc1ncc(Br)c(Nc2ccc3nc(CC)ccc3c2P(C)(C)=O)n1` (stereo partly drawn) [Example 477, 3-(7-((R)-3-(4-(1-(4-((5-bromo-4-((5-(dimethylphosphoryl)-2-ethylquinolin-6-yl)amino)pyrimidin-2-yl)amino)-5-ethoxy-2-ethylphenyl)piperidin-4-yl)piperazine-1-carbonyl)pyrrolidin-1-yl)-5-fluoro-2-oxobenzo[d]oxazol-3(2H)-yl)piperidine-2,6-dione], in assay [1] (setting [4]), the “Dmax (%) H1975 # 28 DTC” value came to 73.35%. Also, the DC50 stood at 4.24 nM in assay [1] (setting [7]) and 7.16 nM in assay [2] (setting [8]). Also, in assay [2] (read-out: Dmax (%) BaF3-LTC, BaF3-LTC cells; maximum percentage of inhibition (degradation)), the Dmax is 82.7%.

For the compound `CCOc1cc(N2CCC(N3CCN(C(=O)[C@@H]4CCN(c5cccc6c5oc(=O)n6C5CCC(=O)NC5=O)C4)CC3)CC2)c(CC)cc1Nc1ncc(Br)c(Nc2ccc3nc(CC)ccc3c2P(C)(C)=O)n1` (stereo partly drawn) [Example 478, 3-(7-((R)-3-(4-(1-(4-((5-bromo-4-((5-(dimethylphosphoryl)-2-ethylquinolin-6-yl)amino)pyrimidin-2-yl)amino)-5-ethoxy-2-ethylphenyl)piperidin-4-yl)piperazine-1-carbonyl)pyrrolidin-1-yl)-2-oxobenzo[d]oxazol-3(2H)-yl)piperidine-2,6-dione], the “Dmax (%) H1975 # 28 DTC” value in assay [1] (setting [4]) came out at 80.49%. The DC50 was determined as 0.645 nM in assay [1] (setting [7]) and 3.05 nM in assay [2] (setting [8]). The “Dmax (%) BaF3-LTC” value in assay [2] (BaF3-LTC cells; maximum percentage of inhibition (degradation)) was found to be 88.22%.
